Where two headings read alike, the source gives them in different places.
Target: T1, mouse TMEM16A mutant K603Q (Mus musculus, UniProt Q8BHY3, K603Q)
T1 construct: expressed in transfected cells; host or cells: HEK293T
T1 sequence (Q8BHY3 1-960 K603Q): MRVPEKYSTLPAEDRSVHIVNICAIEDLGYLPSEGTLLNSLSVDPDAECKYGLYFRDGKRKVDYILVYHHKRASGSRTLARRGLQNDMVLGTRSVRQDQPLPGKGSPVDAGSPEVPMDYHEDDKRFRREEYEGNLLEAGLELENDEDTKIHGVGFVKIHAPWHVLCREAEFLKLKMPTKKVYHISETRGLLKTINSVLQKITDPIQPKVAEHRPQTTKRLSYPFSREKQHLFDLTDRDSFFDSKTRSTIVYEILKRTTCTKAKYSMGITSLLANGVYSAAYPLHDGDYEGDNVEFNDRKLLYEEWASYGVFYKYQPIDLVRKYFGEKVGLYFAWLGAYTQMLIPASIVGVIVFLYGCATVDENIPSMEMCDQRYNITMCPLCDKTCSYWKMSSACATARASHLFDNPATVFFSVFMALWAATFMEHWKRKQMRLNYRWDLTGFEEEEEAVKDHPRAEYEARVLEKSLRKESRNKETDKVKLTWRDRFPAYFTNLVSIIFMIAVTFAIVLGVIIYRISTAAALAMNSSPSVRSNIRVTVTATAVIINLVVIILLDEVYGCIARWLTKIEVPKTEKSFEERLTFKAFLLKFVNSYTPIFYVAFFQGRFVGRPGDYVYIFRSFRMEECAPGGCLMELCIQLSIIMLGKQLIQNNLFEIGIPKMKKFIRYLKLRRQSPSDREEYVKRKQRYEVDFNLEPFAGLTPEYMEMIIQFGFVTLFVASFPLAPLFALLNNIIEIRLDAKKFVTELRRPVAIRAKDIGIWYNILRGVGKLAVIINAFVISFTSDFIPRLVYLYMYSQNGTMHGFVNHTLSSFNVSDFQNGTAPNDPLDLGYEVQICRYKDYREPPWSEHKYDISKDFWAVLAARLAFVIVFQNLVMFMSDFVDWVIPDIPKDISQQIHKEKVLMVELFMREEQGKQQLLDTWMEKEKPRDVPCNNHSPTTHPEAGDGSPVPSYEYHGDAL
Assay: Inside-out patch recording of 1PBC block, mutant K603Q
Assay type: cell-based
Procedure: HEK293T cells (ATCC CRL-1573) were maintained in Dulbecco’s modified Eagle’s medium (DMEM; Sigma-Aldrich) supplemented with 10 U ml^−1 penicillin, 0.1 mg ml^−1 streptomycin (Sigma-Aldrich), 2 mM L-glutamine (Sigma-Aldrich), and 10% FBS (Sigma-Aldrich) in a humidified atmosphere containing 5% CO2 at 37 °C. HEK293S GnTI^− cells (ATCC CRL-3022) were maintained in HyClone HyCell TransFx-H medium (GE Healthcare) supplemented with 10 U ml^−1 penicillin, 0.1 mg ml^−1 streptomycin, 4 mM L-glutamine, 0.15% poloxamer 188 (Sigma-Aldrich), and 1% FBS in an atmosphere containing 5% CO2 at 185 rpm at 37 °C. The ac splice variant of mouse TMEM16A (UniProt ID: Q8BHY3), mouse TMEM16B (UniProt ID: Q8CFW1), or mouse TMEM16F (UniProt ID: Q6P9J9) bearing a 3C cleavage site, a Venus YFP, a Myc tag, and a Streptavidin-binding peptide (SBP) downstream of the open reading frame in a modified pcDNA3.1 vector (Invitrogen) were used as described previously[21],[31]. Mutations were introduced using a modified QuikChange method[58] and were verified by sequencing.
HEK293T cells were transfected with 3–4 μg DNA per 6 cm Petri dish using the calcium phosphate co-precipitation method and were used within 24–96 h after transfection. Recordings were performed on inside-out patches excised from HEK293T cells expressing the construct of interest. Patch pipettes were pulled from borosilicate glass capillaries (O.D. 1.5 mm, I.D. 0.86 mm, Sutter Instrument) and were fire-polished with a microforge (Narishige) before use. Pipette resistance was typically 3–8 MΩ when filled with the recording solutions detailed below. Seal resistance was typically 4 GΩ or higher. Voltage-clamp recordings were made using Axopatch 200B, Digidata 1550, and Clampex 10.7 (Molecular Devices). Analog signals were filtered with the in-built 4-pole Bessel filter at 10 kHz and were digitized at 20 kHz. Solution exchange was achieved using a gravity-fed system through a theta glass pipette mounted on an ultra-fast piezo-driven stepper (Siskiyou). […] All recordings were performed at 20 °C.
A symmetrical ionic condition was used throughout. Stock solution with Ca^2+-EGTA contained 150 mM NaCl, 5.99 mM Ca(OH)2, 5 mM EGTA, and 10 mM HEPES at pH 7.40. Stock solution with EGTA contained 150 mM NaCl, 5 mM EGTA, and 10 mM HEPES at pH 7.40. Free Ca^2+ concentrations were adjusted by mixing the stock solutions at the required ratios calculated using the WEBMAXC program (http://web.stanford.edu/~cpatton/webmaxcS.htm). Patch pipettes were filled with the stock solution with Ca^2+-EGTA, which has a free Ca^2+ concentration of 1 mM. 1PBC (ChemBridge) stock was reconstituted in anhydrous DMSO (Sigma-Aldrich) at 100 mM and stored at −20 °C. Working solutions with 1PBC were prepared by serial dilution. Unless otherwise stated, experiments were performed at a saturating Ca^2+ concentration as shown in Supplementary Table 1 and the primary data were corrected for current rundown as described previously[21],[25].
Concentration-response relations, obtained from the ratio of the I-V plots before and after the application of the blocker, were fitted to the Hill equation,1 I/Imax=1/1+IC50/[blocker]^h where I/Imax is the normalized current responses, IC50 defines the concentration at which inhibition is at its half-maximum, and h is the Hill coefficient.

Question: Which results are given for N#Cc1c(C(F)(F)F)cc(O)n2c1nc1ccccc12 [1PBC]?
Answer: IC50 (0 mV, 4 µM Ca2+): 193 µM; remaining activity at 10 µM (0 mV, 1PBC conc 10, read-out: relative current in 1PBC (avr)): 94.4%; remaining activity at 30 µM (0 mV, 1PBC conc 30, read-out: relative current in 1PBC (avr)): 85.8%; remaining activity at 100 µM (0 mV, 1PBC conc 100, read-out: relative current in 1PBC (avr)): 66.3%; remaining activity at 10 µM (10 µM 1PBC, +80 mV, saturating Ca2+ (4 µM), read-out: I/Imax): 95.1%; remaining activity at 10 µM (10 µM 1PBC, -80 mV, saturating Ca2+ (4 µM), read-out: I/Imax): 92.8%; remaining activity at 30 µM (30 µM 1PBC, +80 mV, saturating Ca2+ (4 µM), read-out: I/Imax): 87%; remaining activity at 30 µM (30 µM 1PBC, -80 mV, saturating Ca2+ (4 µM), read-out: I/Imax): 86.9%; remaining activity at 100 µM (100 µM 1PBC, +80 mV, saturating Ca2+ (4 µM), read-out: I/Imax): 65.4%; remaining activity at 100 µM (100 µM 1PBC, -80 mV, saturating Ca2+ (4 µM), read-out: I/Imax): 66.1%; IC50 (20 mV, 4 µM Ca2+): 206 µM; remaining activity at 10 µM (20 mV, 1PBC conc 10, read-out: relative current in 1PBC (avr)): 96.5%; remaining activity at 30 µM (20 mV, 1PBC conc 30, read-out: relative current in 1PBC (avr)): 87.2%; remaining activity at 100 µM (20 mV, 1PBC conc 100, read-out: relative current in 1PBC (avr)): 67.1%; IC50 (40 mV, 4 µM Ca2+): 190 µM; remaining activity at 10 µM (40 mV, 1PBC conc 10, read-out: relative current in 1PBC (avr)): 94.6%; remaining activity at 30 µM (40 mV, 1PBC conc 30, read-out: relative current in 1PBC (avr)): 87.4%; remaining activity at 100 µM (40 mV, 1PBC conc 100, read-out: relative current in 1PBC (avr)): 65%; IC50 (60 mV, 4 µM Ca2+): 196 µM; remaining activity at 10 µM (60 mV, 1PBC conc 10, read-out: relative current in 1PBC (avr)): 95%; remaining activity at 30 µM (60 mV, 1PBC conc 30, read-out: relative current in 1PBC (avr)): 86.3%; remaining activity at 100 µM (60 mV, 1PBC conc 100, read-out: relative current in 1PBC (avr)): 66.4%; log-fold IC50 (change of mutant vs WT) (80 mV): 1.991; IC50 (80 mV, 4 µM Ca2+): 192 µM; remaining activity at 10 µM (80 mV, 1PBC conc 10, read-out: relative current in 1PBC (avr)): 95.1%; remaining activity at 30 µM (80 mV, 1PBC conc 30, read-out: relative current in 1PBC (avr)): 87%; remaining activity at 100 µM (80 mV, 1PBC conc 100, read-out: relative current in 1PBC (avr)): 65.4%; IC50 (100 mV, 4 µM Ca2+): 197 µM; remaining activity at 10 µM (100 mV, 1PBC conc 10, read-out: relative current in 1PBC (avr)): 95.8%; remaining activity at 30 µM (100 mV, 1PBC conc 30, read-out: relative current in 1PBC (avr)): 87.5%; remaining activity at 100 µM (100 mV, 1PBC conc 100, read-out: relative current in 1PBC (avr)): 65.8%; IC50 (120 mV, 4 µM Ca2+): 198 µM; remaining activity at 10 µM (120 mV, 1PBC conc 10, read-out: relative current in 1PBC (avr)): 97.2%; remaining activity at 30 µM (120 mV, 1PBC conc 30, read-out: relative current in 1PBC (avr)): 88.7%; remaining activity at 100 µM (120 mV, 1PBC conc 100, read-out: relative current in 1PBC (avr)): 65%; IC50 (140 mV, 4 µM Ca2+): 196 µM; remaining activity at 10 µM (140 mV, 1PBC conc 10, read-out: relative current in 1PBC (avr)): 97.5%; remaining activity at 30 µM (140 mV, 1PBC conc 30, read-out: relative current in 1PBC (avr)): 89.1%; remaining activity at 100 µM (140 mV, 1PBC conc 100, read-out: relative current in 1PBC (avr)): 64.5%; IC50 (-20 mV, 4 µM Ca2+): 180 µM; remaining activity at 10 µM (-20 mV, 1PBC conc 10, read-out: relative current in 1PBC (avr)): 92.4%; remaining activity at 30 µM (-20 mV, 1PBC conc 30, read-out: relative current in 1PBC (avr)): 84.5%; remaining activity at 100 µM (-20 mV, 1PBC conc 100, read-out: relative current in 1PBC (avr)): 65.5%; IC50 (-40 mV, 4 µM Ca2+): 187 µM; remaining activity at 10 µM (-40 mV, 1PBC conc 10, read-out: relative current in 1PBC (avr)): 93.3%; remaining activity at 30 µM (-40 mV, 1PBC conc 30, read-out: relative current in 1PBC (avr)): 86.6%; remaining activity at 100 µM (-40 mV, 1PBC conc 100, read-out: relative current in 1PBC (avr)): 65.2%; IC50 (-60 mV, 4 µM Ca2+): 193 µM; remaining activity at 10 µM (-60 mV, 1PBC conc 10, read-out: relative current in 1PBC (avr)): 93.8%; remaining activity at 30 µM (-60 mV, 1PBC conc 30, read-out: relative current in 1PBC (avr)): 84.7%; remaining activity at 100 µM (-60 mV, 1PBC conc 100, read-out: relative current in 1PBC (avr)): 67.1%; IC50 (-80 mV, 4 µM Ca2+): 193 µM; remaining activity at 10 µM (-80 mV, 1PBC conc 10, read-out: relative current in 1PBC (avr)): 92.8%; remaining activity at 30 µM (-80 mV, 1PBC conc 30, read-out: relative current in 1PBC (avr)): 86.9%; remaining activity at 100 µM (-80 mV, 1PBC conc 100, read-out: relative current in 1PBC (avr)): 66.1%; IC50 (-100 mV, 4 µM Ca2+): 199 µM; remaining activity at 10 µM (-100 mV, 1PBC conc 10, read-out: relative current in 1PBC (avr)): 95.1%; remaining activity at 30 µM (-100 mV, 1PBC conc 30, read-out: relative current in 1PBC (avr)): 86.6%; remaining activity at 100 µM (-100 mV, 1PBC conc 100, read-out: relative current in 1PBC (avr)): 66.7%; IC50 (-120 mV, 4 µM Ca2+): 202 µM; remaining activity at 10 µM (-120 mV, 1PBC conc 10, read-out: relative current in 1PBC (avr)): 94.9%; remaining activity at 30 µM (-120 mV, 1PBC conc 30, read-out: relative current in 1PBC (avr)): 86.9%; remaining activity at 100 µM (-120 mV, 1PBC conc 100, read-out: relative current in 1PBC (avr)): 67%; IC50 (-140 mV, 4 µM Ca2+): 216 µM; remaining activity at 10 µM (-140 mV, 1PBC conc 10, read-out: relative current in 1PBC (avr)): 96.6%; remaining activity at 30 µM (-140 mV, 1PBC conc 30, read-out: relative current in 1PBC (avr)): 88.1%; remaining activity at 100 µM (-140 mV, 1PBC conc 100, read-out: relative current in 1PBC (avr)): 68%; IC50 (K603Q, V 0 mV): 193 µM; IC50 (K603Q, V 20 mV): 206 µM; IC50 (K603Q, V 40 mV): 190 µM; IC50 (K603Q, V 60 mV): 196 µM; IC50 (K603Q, V 80 mV): 192 µM; IC50 (K603Q, V 100 mV): 197 µM; IC50 (K603Q, V 120 mV): 198 µM; IC50 (K603Q, V 140 mV): 196 µM; IC50 (K603Q, V -20 mV): 180 µM; IC50 (K603Q, V -40 mV): 187 µM; IC50 (K603Q, V -60 mV): 193 µM; IC50 (K603Q, V -80 mV): 193 µM; IC50 (K603Q, V -100 mV): 199 µM; IC50 (K603Q, V -120 mV): 202 µM; IC50 (K603Q, V -140 mV): 216 µM; Lowering of the potency of block vs WT (Lys 603 to glutamine): about 100 fold

From article PMC9120017, “Inhibition mechanism of the chloride channel TMEM16A by the pore blocker 1PBC” (Nature Communications, 2022)
